Measurements from ChEMBL document CHEMBL4219230, “Design, synthesis and biological evaluation of novel 4-phenylisoquinolinone BET bromodomain inhibitors” (Bioorg Med Chem Lett, 2018).
Values after ≈ are worked out from the molar mass of the structure shown.

Experiments:
in vitro [1] = conditions: mouse
Description: Half life in mouse liver microsomes

in vivo = conditions: CD1, mouse, po, 10 mg/kg
physchem = conditions: buffer, pH 7.4
Description: Solubility of the compound at pH 7.4

in vitro [2] = conditions: dog, MDCK-MDR1
Description: Permeability across apical to basolateral side in MDCK cells expressing MDR1

[3] = Protein binding in human plasma; assay type: ADME, cell-free; conditions: read-out: PPB (converted)
[4] = Protein binding in mouse plasma; assay type: ADME, cell-free; conditions: read-out: PPB (converted)

Compound	half-life (in vitro [1]; microsomes) [h]	AUC(0-t) at 6 h (in vivo) [ng·h/mL]	solubility (physchem) [µg/mL]	Papp A→B (in vitro [2]) [×10⁻⁶ cm/s]	fraction unbound [3]	half-life (in vitro [1]; liver microsomes) [h]	fraction unbound [4]
CCNC(=O)C[C@@H]1N=C(c2ccc(Cl)cc2)c2cc(OC)ccc2-n2c(C)nnc21 [MOLIBRESIB]	1.58						
CCOc1ccc(S(=O)(=O)CC)cc1-c1cn(C)c(=O)c2ccc(-c3cnn(C)c3)cc12		11400	12 (≈ 26.6 µM)	6	0.12	> 3.33	0.14
